Test results as given in patent US11865128B2, “Aminoglycosides and uses thereof in treating genetic disorders” (Technion Research & Development Foundation Limited, priority 2010, dated 2024).
Values after ≈ are worked out from the molar mass of the structure shown. Read-outs that look alike come from different tables or passages of the source.

Columns and labels:
[1] = Cell toxicity LC50 in HFF cells; type: cell-based; conditions: human, read-out: Cell toxicity LC50 HFF
Description: (§1) In order to ensure suitable cell viability for each of the tested compounds at the concentrations tested, cell toxicity was evaluated for each compound by measuring the half-maximal-lethal concentration value (LC50 values) in HEK-293 and HFF (human foreskin fibroblasts) cells.
(§2) The percentages of cell viability were calculated as the ratio between the numbers of living cells in cultures grown in the presence of the tested compounds, versus cultures grown under the identical protocol but without the tested compound. The results represent averages of at least three independent experiments.
(§3) The half-maximal lethal concentration (LC50) values were obtained from fitting concentration-response curves to the data of at least three independent experiments, using GraFit 5 software.

[2] = system: Prokaryotic system (prokaryotic ribosome); conditions: shown previously; cited from earlier work
E. coli R477/100 = assay: Antibacterial activity MIC, double-microdilution; type: cell-based, Escherichia coli
[3] = target: Prokaryotic system (prokaryotic ribosome); assay: Prokaryotic translation inhibition, coupled transcription/translation, luciferase detection; type: biochemical
Description: Prokaryotic and eukaryotic translation inhibition was quantified in coupled transcription/translation assays by using active luciferase detection, performed as described hereinabove. […] All the experiments were performed in duplicates and analogous results were obtained in three different experiments. In all biological tests, all tested aminoglycosides were in their sulfate salt forms. The concentrations reported refer to that of the free amine form of each aminoglycoside.
(§4) In all biological experiments conducted, all tested aminoglycosides were in their sulfate salt forms. The concentrations reported in Table 3 refer to that of the free amine form of each aminoglycoside. Prokaryotic and eukaryotic translation inhibition was quantified in coupled transcription/translation assays as previously described. The half-maximal concentration (IC50) values were obtained from fitting concentration response curves to the data of at least three independent experiments, using GraFit 5 software. All the experiments were performed in duplicates and analogous results were obtained in three different experiments.

[4] = target: Eukaryotic system (eukaryotic cytoplasmic ribosome); assay: Eukaryotic translation inhibition, coupled transcription/translation, luciferase detection; type: biochemical; conditions: for Prokaryotic versus Eukaryotic selectivity IC50^Euk/IC50^Pro: ratio of eukaryotic to prokaryotic translation inhibition IC50
Text: Prokaryotic and eukaryotic translation inhibition was quantified in coupled transcription/translation assays by using active luciferase detection, performed as described hereinabove. […] In all biological tests, all tested aminoglycosides were in their sulfate salt forms. The concentrations reported refer to that of the free amine form of each aminoglycoside.
as §4, with “software.” for “software. All the experiments were performed in duplicates and analogous results were obtained in three different experiments.”

[5] = Cell toxicity LC50 in HEK-293 cells; type: cell-based; conditions: human, read-out: Cell toxicity LC50 HEK-293
Description: as §1, §2, §3

B. subtilis ATCC6633 = assay: Antibacterial activity MIC, double-microdilution; type: cell-based, Bacillus subtilis
[6] = system: nonsense mutation constructs R3X, R245X, Q70X, W1282X, G542X in HEK-293 cells; assay: Ex vivo stop codon readthrough assay, p2luc constructs transfected to HEK-293 cells; type: cell-based, human; conditions: ex vivo in HEK-293, all the mutations tested, FIGS. 4, 8-10
Description: For the ex vivo readthrough assays, the constructs harboring the R3X, R245X, Q70X and W1282X mutations were transfected to HEK-293 cells with Lipofectamine 2000 (Invitrogen) and addition of the tested compounds was performed 6 hours post transfection. The cells were harvested following 16 hours of incubation with the tested aminoglycosides. Stop codon readthrough was calculated as previously described (see, Grentzmann, G. et al., RNA, 1998, 4, p. 479).
The constructs were transfected into a human embryonic kidney cell line (HEK-293) and incubated with varying concentrations of NB122, NB123, NB54 and the control drug gentamicin, and the results are presented in FIGS. 4A-D.
As described hereinabove, the constructs of p2luc plasmid harboring the R3X, R245X, Q70X and W1282X mutations were transfected to HEK-293 cells using lipofectamine2000 and the tested compounds were added 6 hours post transfection. Cells were harvested after 16 hours incubation and luciferase activity was determined using the dual luciferase reporter assay system (Promega™). Stop codon readthrough was calculated as described previously, and the results are averages of at least three independent experiments.

[7] = system: nonsense mutation constructs R3X, R245X, G542X, W1282X, Q70X, R3381X (PCDH15, CFTR, IDUA, Dystrophin); assay: In vitro stop codon readthrough assay, p2Luc dual luciferase, TNT reticulocyte lysate; type: biochemical; conditions: cell-free, mutations tested; comparison in words from FIGS. 2, 3, 5-7
Text: DNA fragments derived from PCDH15, CFTR, Dystrophin and IDUA cDNAs, including the tested nonsense mutation or the corresponding wild type (wt) codon, and four to six upstream and downstream flanking codons were created by annealing following pairs of complementary oligonucleotides:
The fragments were inserted in frame into the polylinker of the p2Luc plasmid between either BamHI and SacI (p.R3X and p.R245X), or SalI and SacI (all the rest) restriction sites.
For the in vitro readthrough assays, the obtained plasm ids, with addition of the tested aminoglycosides were transcribed and translated using the TNT Reticulocyte Lysate Quick Coupled Transcription/Translation System. Luciferase activity was determined after 90 minutes of incubation at 30° C., using the Dual Luciferase Reporter Assay System (Promega™).
Initially, the influence of the chiral C5″-methyl group on readthrough potential was evaluated on the pseudo-trisaccharides NB118 and NB119 by using a dual luciferase reporter assay system as described hereinabove. Briefly, DNA fragments were cloned between BamHI and SacI restriction sites of the p2luc vector and the obtained constructs were transcribed and translated using TNT quick coupled transcription/translation system. The amount of the translated products was evaluated using the dual luciferase reporter assay system and used to calculate the suppression level.

[8] = system: HFF (human foreskin fibroblasts) cells; assay: Cell toxicity LC50 in HFF cells; type: cell-based; conditions: Table 2
Description: as §1, §2, §3

HEK-293 cells = assay: Cell toxicity LC50 in HEK-293 cells; type: cell-based; conditions: Table 2
Description: as §1, §2, §3

human fibroblast cells = conditions: background; cited from earlier work
[9] = HFF (human foreskin fibroblast) cells, Table 2
[10] = Table 2, read-out: Translation Inhibition Prokaryotic system IC50
[11] = Table 3, read-out: Translation Inhibition IC50^Pro
[12] = Table 2, read-out: Translation Inhibition Eukaryotic System IC50
[13] = Table 3, read-out: Translation Inhibition IC50^Euk
[14] = Bacillus subtilis, ATCC6633, Table 2, read-out: Antibacterial activity MIC B. subtilis ATCC6633
[15] = Table 2, read-out: Antibacterial activity MIC E. coli R477/100
[16] = Table 2, read-out: Antibacterial activity MIC B. subtilis ATCC6633
[17] = HFF (human foreskin fibroblast) cells, Table 1
[18] = Escherichia coli, R477/100, Table 1, read-out: Antibacterial activity MIC E. coli R477/100
[19] = Table 1, read-out: Translation inhibition Prokaryotic system IC50
[20] = Table 1, read-out: Translation inhibition Eukaryotic System IC50
[21] = Bacillus subtilis, ATCC6633, Table 1, free amine concentration, sulfate salts tested, read-out: Antibacterial activity MIC B. subtilis ATCC6633

Structure (SMILES)	weaker inhibitors of prokaryotic translation than gentamicin and paromomycin [2]	IC50 [3, 10]	IC50 [3, 11]	IC50 [4, 12]	IC50 [4, 13]	Prokaryotic versus Eukaryotic selectivity IC50^Euk/IC50^Pro [4]	observed efficacy of aminoglycoside-induced readthrough, order [6]	in vitro readthrough activity (stop codon suppression level) [7]	CC50 [8]	MIC (E. coli R477/100; [15])	CC50 (HEK-293 cells)	MIC (B. subtilis ATCC6633; [16])	also measured
C[C@@H](O)C1O[C@H](O[C@@H]2C(N)C[C@@H](NC(=O)[C@@H](O)CCN)[C@@H](O)C2O[C@@H]2O[C@H](CN)[C@H](O)C2O)[C@@H](N)C(O)[C@@H]1O (some centres unmarked) [NB84, reference compound]	about 10 fold	0.98 ± 0.07 µM	0.98 ± 0.07 µM	2.8 ± 0.3 µM	2.8 ± 0.3 µM	2.9	NB127 NB128>NB84>gentamicin	–	–	–	–	–	CC50 [1, 9]: 16300 ± 470 µM; MIC (E. coli R477/100; Escherichia coli, R477/100, Table 2, read-out: Antibacterial activity MIC E. coli R477/100): 556 µM (≈ 317 µg/mL); CC50 ([5]; HEK-293 cells, Table 2): 5770 ± 680 µM; MIC (B. subtilis ATCC6633; [14]): 70 µM (≈ 39.9 µg/mL)
CC(N)C1OC(OC2C(O)C(NC(=O)C(O)CCN)CC(N)C2OC2OC(C(C)O)C(O)C(O)C2N)C(O)C1O [NB127, 6′-(R)-Methyl-5-O-(5-amino-5,6-dideoxy-α-L-talofuranosyl)-1-N—[(S)-4-amino-2-hydroxy-butanoyl] paromamine]	–	1.75 ± 0.274 µM	1.75 ± 0.274 µM	0.73 ± 0.07 µM	0.73 ± 0.07 µM	0.4	NB127 NB128>NB84>gentamicin	significantly stronger readthrough inducers than the corresponding counterparts	6480 ± 260 µM	384 µM (≈ 224 µg/mL)	5090 ± 270 µM	192 µM (≈ 112 µg/mL)	–
NC[C@H]1O[C@@H](O[C@@H]2C(O)[C@H](N)CC(N)[C@H]2O[C@H]2OC(CO)[C@@H](O)[C@H](O)C2N)C(O)[C@H]1O (some centres unmarked) [NB30, reference compound]	about 10 fold	–	0.46 ± 0.05 µM	–	31 ± 4 µM	68	–	–	–	–	–	–	CC50 [1, 17]: 21800 ± 900 µM; MIC (E. coli R477/100; [18]): 790 µM (≈ 359 µg/mL); IC50 [3, 19]: 0.46 ± 0.05 µM; IC50 [4, 20]: 31 µM; CC50 ([5]; HEK-293 cells, Table 1): 21400 µM; MIC (B. subtilis ATCC6633; [21]): 100 µM
C[C@@H](N)[C@H]1O[C@@H](O[C@@H]2[C@@H](O)[C@H](NC(=O)[C@@H](O)CCN)C[C@H](N)[C@H]2O[C@H]2O[C@H]([C@@H](C)O)[C@@H](O)[C@H](O)[C@H]2N)[C@H](O)[C@@H]1O [NB128, 6′-(R)-Methyl-5-O-(5-amino-5,6-dideoxy-β-D-allofuranosyl)-1-N—[(S)-4-amino-2-hydroxy-butanoyl] paromamine]	–	1.75 ± 0.145 µM	1.75 ± 0.145 µM	0.89 ± 0.07 µM	0.89 ± 0.07 µM	0.5	NB127 NB128>NB84>gentamicin	significantly stronger readthrough inducers than the corresponding counterparts	2780 ± 110 µM	384 µM (≈ 224 µg/mL)	5350 ± 310 µM	96 µM (≈ 56 µg/mL)	–
CN[C@H]1[C@@H](O)C(OC2[C@H](N)CC(N)[C@@H](O[C@H]3OC(C(C)O)[C@@H](O)[C@H](O)C3N)[C@@H]2O)OCC1(C)O (some centres unmarked) [G418, reference compound]	–	0.009 ± 0.002 µM	0.009 ± 0.002 µM	2 ± 0.3 µM	2 µM	–	–	the strongest readthrough inducer	–	–	–	–	CC50 ([1]; Table 2): 1590 ± 140 µM; MIC (E. coli R477/100; Escherichia coli, R477/100, read-out: Antibacterial activity MIC E. coli R477/100): 9 µM (≈ 4.47 µg/mL); LD50 against human fibroblast cells (human fibroblast cells): 0.04 mg/mL; more selective to prokaryotic versus eukaryotic ribosome [4]: 225 fold; CC50 ([5]; Table 2): 1310 ± 60 µM; MIC (B. subtilis ATCC6633; Bacillus subtilis, ATCC6633, read-out: Antibacterial activity MIC B. subtilis ATCC6633): < 1.25 µM
NCC[C@H](O)C(=O)N[C@@H]1CC(N)[C@@H](O[C@H]2OC(CO)[C@@H](O)[C@H](O)C2N)[C@H](O[C@@H]2O[C@H](CN)[C@H](O)C2O)C1O (some centres unmarked) [NB54, reference compound]	about 10 fold	–	0.16 ± 0.02 µM	–	24 ± 1 µM	151	NB122≥NB123>NB54>gentamicin	–	–	–	–	–	CC50 [1, 17]: 7800 ± 400 µM; MIC (E. coli R477/100; [18]): 588 µM (≈ 327 µg/mL); IC50 [3, 19]: 0.16 ± 0.02 µM; IC50 [4, 20]: 24 µM; CC50 ([5]; HEK-293 cells, Table 1): 6100 µM; MIC (B. subtilis ATCC6633; [21]): 70 µM
C[C@@H](O)C1O[C@H](O[C@@H]2C(N)C[C@@H](N)[C@@H](O)C2O[C@@H]2O[C@H](CN)[C@H](O)C2O)[C@@H](N)C(O)[C@@H]1O (some centres unmarked) [NB74, reference compound]	about 10 fold	1.13 ± 0.12 µM	1.13 ± 0.12 µM	–	–	–	NB124>NB125>NB74>gentamicin	–	–	–	–	–	CC50 [1, 9]: 21300 ± 1720 µM; CC50 ([5]; HEK-293 cells, Table 2): 22200 ± 1060 µM; MIC (B. subtilis ATCC6633; [14]): 42 µM (≈ 19.7 µg/mL)
C[C@@H](O)C1O[C@H](O[C@@H]2C(N)C[C@@H](N)C(O)[C@H]2O[C@@H]2O[C@H]([C@@H](C)N)[C@H](O)C2O)C(N)[C@@H](O)[C@@H]1O (stereo partly drawn) [NB125, 6′-(R)-Methyl-5-O-(5-amino-5,6-dideoxy-β-D-allofuranosyl)-paromamine]	–	1.86 ± 0.173 µM	1.86 ± 0.173 µM	7.96 ± 0.27 µM	7.96 ± 0.27 µM	4.3	NB124>NB125>NB74>gentamicin	smaller comparatively	7590 ± 180 µM	1536 µM (≈ 741 µg/mL)	16500 ± 3100 µM	96 µM (≈ 46.3 µg/mL)	–
